One assay deals with T1, Dvl1 (Homo sapiens, UniProt O14640).
T1 construct: All three endogenous Dvl could be detected in crude cell lysate of HEK293, and could be pulled down by GST-Dvlpep; endogenous in cells; host or cells: HEK293S
T1 sequence (O14640 1-695): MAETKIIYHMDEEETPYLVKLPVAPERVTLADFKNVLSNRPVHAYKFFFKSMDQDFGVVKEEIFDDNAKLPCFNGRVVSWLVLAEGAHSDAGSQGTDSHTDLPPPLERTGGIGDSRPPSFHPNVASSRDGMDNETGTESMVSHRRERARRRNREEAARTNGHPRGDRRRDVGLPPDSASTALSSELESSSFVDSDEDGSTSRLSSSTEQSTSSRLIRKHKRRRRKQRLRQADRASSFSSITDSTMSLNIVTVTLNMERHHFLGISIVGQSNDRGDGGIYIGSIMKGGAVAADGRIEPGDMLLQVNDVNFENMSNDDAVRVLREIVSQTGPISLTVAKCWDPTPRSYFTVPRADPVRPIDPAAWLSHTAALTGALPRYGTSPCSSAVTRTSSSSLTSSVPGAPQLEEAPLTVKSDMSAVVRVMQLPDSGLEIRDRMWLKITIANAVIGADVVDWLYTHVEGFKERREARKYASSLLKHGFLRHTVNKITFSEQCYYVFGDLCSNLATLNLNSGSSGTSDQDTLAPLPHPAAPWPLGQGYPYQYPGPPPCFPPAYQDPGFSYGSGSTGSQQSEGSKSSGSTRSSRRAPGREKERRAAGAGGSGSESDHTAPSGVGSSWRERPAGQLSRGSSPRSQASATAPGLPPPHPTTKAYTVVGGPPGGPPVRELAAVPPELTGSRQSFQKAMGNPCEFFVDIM
The assay is described as follows: GST pull-down from HEK293S cell extract, blot with anti-Dvl1. Type of assay: binding. Particulars: HEK293 cell lysate, glutathione Sepharose-4B beads. The method, then:
(§1) Cell lysate of HEK293S cell was prepared and the whole protein concentration was normalized to 1 mg/ml. GST or GST-DVLpep fusion protein was bound to glutathione Sepharose-4B. Beads carrying protein (2-10 μg) were incubated with cell extract of HEK293S cells overnight at 4° C. The beads were washed with washing buffer (PBS, 0.5% BSA, 0.1% Tween 20) for 10 times and resuspended in SDS sample buffer, incubated at 90° C. for 10 min and the supernatant was subjected to SDS-PAGE. The crude cell extract was also subjected to the same SDS-PAGE. Dvl proteins were blotted by anti-Dvl1, anti-Dvl2, and anti-Dvl3.
(§2) Pull-down Assays—GST or GST-DVLpep fusion protein (GST fused with peptide GGGKWYGWL (SEQ ID NO: 182) at its C-terminus) was bound to glutathione Sepharose-4B following standard protocols, and bound proteins were quantified by SDS-PAGE using known amounts of BSA as standards. Beads carrying protein (2-10 μg) were incubated with cell extract of HEK293S cell overnight at 4° C. The cell extracts were prepared by lysing the cell in SJC lysis buffer. The whole protein concentration was determined by BCA protein kit (Promega; Madison, Wis.) and normalized to 1 mg/ml. […] Bound proteins were blotted by anti-Dvl1, anti-Dvl2 and anti-Dvl3 and analyzed by Li-core™.

The next assay concerns the target T2, Dvl2 (Homo sapiens, UniProt O14641).
T2 construct: All three endogenous Dvl could be detected in crude cell lysate of HEK293, and could be pulled down by GST-Dvlpep; endogenous in cells; host or cells: HEK293S
T2 sequence (O14641 1-736): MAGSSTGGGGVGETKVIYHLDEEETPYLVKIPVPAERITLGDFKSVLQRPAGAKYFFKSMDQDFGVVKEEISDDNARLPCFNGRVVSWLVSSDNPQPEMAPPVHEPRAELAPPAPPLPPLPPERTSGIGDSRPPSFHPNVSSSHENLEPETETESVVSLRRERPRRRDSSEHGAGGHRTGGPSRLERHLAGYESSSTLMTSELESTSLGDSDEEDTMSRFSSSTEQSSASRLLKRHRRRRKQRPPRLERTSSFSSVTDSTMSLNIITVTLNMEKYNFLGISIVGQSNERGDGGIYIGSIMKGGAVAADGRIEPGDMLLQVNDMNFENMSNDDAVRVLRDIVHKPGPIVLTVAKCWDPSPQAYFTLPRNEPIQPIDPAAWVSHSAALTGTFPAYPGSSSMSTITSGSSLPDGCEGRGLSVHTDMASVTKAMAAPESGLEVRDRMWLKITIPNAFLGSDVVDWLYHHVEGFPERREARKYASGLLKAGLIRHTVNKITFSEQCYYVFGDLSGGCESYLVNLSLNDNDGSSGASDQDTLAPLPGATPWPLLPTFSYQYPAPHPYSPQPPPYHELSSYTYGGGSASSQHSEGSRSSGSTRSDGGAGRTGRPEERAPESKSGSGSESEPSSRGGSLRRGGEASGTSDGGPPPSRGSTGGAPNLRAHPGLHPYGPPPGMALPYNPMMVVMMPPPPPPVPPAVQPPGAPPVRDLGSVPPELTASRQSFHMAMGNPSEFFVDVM
Nature of the assay: GST pull-down from HEK293S cell extract, blot with anti-Dvl2. The assay is classed as binding. Conditions: HEK293 cell lysate, glutathione Sepharose-4B beads. On the procedure:
as §1, §2

In a further assay the target is T3, Dvl3 (Homo sapiens, UniProt Q92997).
T3 construct: All three endogenous Dvl could be detected in crude cell lysate of HEK293, and could be pulled down by GST-Dvlpep; endogenous in cells; host or cells: HEK293S
T3 sequence (Q92997 1-716): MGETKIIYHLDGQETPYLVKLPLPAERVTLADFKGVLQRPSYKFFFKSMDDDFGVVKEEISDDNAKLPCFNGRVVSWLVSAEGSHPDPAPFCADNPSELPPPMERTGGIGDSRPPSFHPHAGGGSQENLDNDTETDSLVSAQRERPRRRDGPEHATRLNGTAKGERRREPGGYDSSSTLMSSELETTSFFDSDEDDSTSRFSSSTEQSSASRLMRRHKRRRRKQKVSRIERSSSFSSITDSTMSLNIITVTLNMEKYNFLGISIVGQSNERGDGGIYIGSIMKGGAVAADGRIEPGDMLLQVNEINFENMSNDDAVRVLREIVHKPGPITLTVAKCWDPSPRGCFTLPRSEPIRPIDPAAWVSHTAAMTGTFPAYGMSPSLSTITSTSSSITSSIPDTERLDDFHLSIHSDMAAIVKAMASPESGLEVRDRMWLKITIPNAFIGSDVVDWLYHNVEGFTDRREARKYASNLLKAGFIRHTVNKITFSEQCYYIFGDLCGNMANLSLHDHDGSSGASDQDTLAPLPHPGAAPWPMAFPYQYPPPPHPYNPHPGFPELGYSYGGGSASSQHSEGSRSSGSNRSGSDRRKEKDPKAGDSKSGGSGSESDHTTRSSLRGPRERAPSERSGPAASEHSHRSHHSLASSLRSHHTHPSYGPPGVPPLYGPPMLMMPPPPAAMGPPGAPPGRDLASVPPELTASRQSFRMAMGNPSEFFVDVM
Nature of the assay: GST pull-down from HEK293S cell extract, blot with anti-Dvl3. The assay is classed as binding. Conditions: HEK293 cell lysate, glutathione Sepharose-4B beads. The method, then: as §1, §2

Assay [1] has as its system Wnt3a-stimulated β-catenin signaling in HEK293S cells. Nature of the assay: TOPGLOW luciferase reporter assay in HEK293S cells. Type of assay: cell-based. The method, then:
HEK293S cells were transfected with the reporter plasmid pTOPGLOW combined with pRL reporter. Cell extract was prepared and the luciferase activity was measured. The relative luciferase unit (RLU) is TopGlow luciferase activity divided by Renila luciferase activity. The fold of activation is the RLU ratio between the Wnt3a-stimulated and non-stimulated cells. Cells were treated with either 10 μM (light bar) or 20 μM (dark bar) peptide ligands.
(§3) Cell culture, transfection and peptide treatment: HEK293 and H1703 were propagated according to the instructions from American Type Culture Collection. HEK293 cells were transfected with FuGene6 according to the manufacturer's instructions (Roche Molecular Biochemicals) at cell confluence of 50%. H1703 cells were transfected with Lipofectamine according to manufacturer's instruction at cell confluence of 80%. Cells were treated with medium containing peptide (5 μM-40 μM) 24 hours after transfection, and were routinely harvested 24 hours after the peptide treatment for additional assays.
(§4) TOPGLOW assay: Cells were plated in 12-well plates. The TOPGLOW reporter plasmid was transfected transiently into cells as described above. TCF-mediated gene transcription was determined by pTOPGLOW luciferase activity, which was normalized to relative luciferase activities of pRL reporter (cotransfected internal control). All experiments were performed duplicated.

The test system of assay [2] is Wnt-stimulated β-catenin signaling in NCI-H1703 cells. The assay is described as follows: TOPGLOW luciferase reporter assay in NCI-H1703 cells. Type of assay: cell-based, human. On the procedure:
NCI-H1703 cells were transfected with the reporter plasmid pTOPGLOW combined with pRL reporter. Cell extract was prepared and the luciferase activity was measured. The relative luciferase unit is TopGlow luciferase activity divided by Renila luciferase activity. The fold of activation is the RLU ratio between the Wnt3a-stimulated or non-stimulated cells.
as §3, §4

Assay [3] has as its system β-catenin protein level in HEK293S cells. The assay is described as follows: Western blot of β-catenin protein level in HEK293S cells. The assay is classed as cell-based. Conditions: 20 μM peptide, 24 hours, compared to DMSO and PEN. On the procedure: HEK293S cells were treated with 20 μM DVLp and PEN for 24 hours. Cell lysate was prepared and subjected to SDS-PAGE. β-catenin was blotted by poly-clonal anti-β-catenin (Genentech, Inc., South San Francisco).
as §3
Western Blot: Harvested cells were lysed with SIC lysis buffer, the supernatant was subjected to SDS-PAGE, which was transferred, blocked and blotted with proper primary antibody by a standard western blot protocol. Fluorescence labeled secondary antibodies (Alexa goat anti-mouse or anti-rabbit) were added and the results were analyzed by Li-core™.

A further assay deals with NCI-H1703 cells. Nature of the assay: Alamar Blue cell viability and growth assay. The assay is classed as cell-based, human. On the procedure: Cells were seeded in black wall 96-well plate in triplicate and treated with various doses of peptide on Day 0 and were incubated at 37° C. in a humid incubator with 5% CO2. After 72 hours, Alamar Blue assay was performed.
Cells were seeded in black wall 96-well plate in triplicate and treated with 10 μM peptide or DMSO on Day 0, and the cell viability was measured by Alamar Blue assay after 24, 48 and 72 hours.
Cell viability assay: Cells were seeded in black wall 96-well plate in triplicate and treated with various doses of peptide on Day 0 and were incubated at 37° C. in a humid incubator with 5% CO2. After 72 hours, Alamar Blue assay was performed according to the instruction from manufacturer. For cell growth profile, the cells were seeded in black wall 96-well plate in triplicate and treated with 10 μM peptide or DMSO on Day 0, and cell viability was measured by Alamar Blue assay after 24, 48 and 72 hours.

“Also recorded” adds a separate entry of the source. No end group written: not given here.

Turning to “GST-Dvlpep: GST fused with peptide GGGKWYGWL (SEQ ID NO: 182) at its C-terminus ({GST}-GGGKWYGWL)”, in the assay with Dvl1, the “Pull-down of endogenous Dvl1” value is reported as “pulled down”. Besides, the “Pull-down of endogenous Dvl2” value with Dvl2 is on record as “pulled down”. Further, the “Pull-down of endogenous Dvl3” value with Dvl3 is listed as “pulled down”.

For Ac-RQIKIWFQNRRMKWKKKWYGWL [DVLp_C], in assay [1] (HEK293S cells, peptide up to 20 μM in medium), the “Effect on Wnt3a-stimulated transcriptional activity (TopGlow)” value is given as “inhibited Wnt3a-stimulated transcriptional activity significantly; also recorded: significantly blocked the Wnt-stimulated increase in β-catenin signaling”. Further, the “Dose dependence of inhibition of Wnt-stimulated β-catenin signaling” value in assay [1] (HEK293S cells, two independent experiments) was “dose-dependent”. For the same substance, in assay [1] (HEK293 cells, peptide 5-20 μM), the “Inhibition of Wnt3a-stimulated transcriptional activity” value is on record as “about 50%”. In assay [2], the “Effect on Wnt-stimulated β-catenin signaling / Tcf-stimulated transcriptional activity (TopGlow)” value is “inhibited by DVLp_C treatment significantly; also recorded: blocked the Wnt-stimulated increase in β-catenin signaling”. Also, in assay [3], the “β-catenin level in whole cell lysate upon Wnt3a stimulation” value is “significantly lower β-catenin levels; also recorded: reduced the Wnt-stimulated increase in β-catenin protein level”. The Cell growth profile result with NCI-H1703 cells (NCI-H1703, 10 μM peptide, 24, 48 and 72 hours) is recorded as “much slower than that of DMSO or PEN-treated cells; also recorded: effectively suppressed the cell growth”. Further, the “Cell viability with Wnt3a stimulation” value with NCI-H1703 cells (NCI-H1703, 72 hours, peptide dose of 5 μM) is “lower viability of DVLp_C-treated cells compared to PEN-treated cells”. The “Cell viability without Wnt3a stimulation” value in the assay with NCI-H1703 cells (NCI-H1703, 72 hours, peptide dose over 10 μM) is “much lower viability than PEN-treated cells”.

These data come from patent publication US7977064B2, “Disheveled PDZ modulators” (Genentech, Inc., priority 2006, dated 2011).
